Laboratory results taken from US4704451A, “Mitogenic peptides” (Washington University, priority 1985, dated 1987).

Key:
[1] = test system: J774 murine macrophage-like cells; test: 3[H]-TdR incorporation in growth-arrested J774 cells; format: cell-based
Method: (§1) The growth stimulation of macrophage-like cells can be determined by measuring the thymidine uptake of the cells at varying concentrations of the mitogenic peptides of the present invention. This was determined for several macrophage-like cell lines including J774, P388Dl, RAW and PU5. These are well-known murine cell lines available, for example, from the American Type Culture Collection, Rockville, Md.
(§2) ^3 [H]-TdR incorporation. Various cell lines were plated in Dulbeccos's Modified Eagle Medium (DMEM) containing 10% fetal calf serum (FCS) in […] humidified atmosphere at 37° C. at an initial density of 5×10^5 per well in 24 well disposable plastic plates (Falcon, Oxnard, Calif.). Arrest of DNA synthesis (i.e., G0 /G1) was achieved by incubating the cells for 48 hours in serum-free DMEM containing 0.1% bovine serum albumin (BSA). The cells were then exposed to the peptide or to various […], or to FCS for 48 hours. Enhanced thymidine incorporation was assessed following a 2 hour pulse of N-methyl^3 [H]-TdR (1 μCi/ml). The cells were washed ×3 in PBS (phosphate buffered saline, pH 7.4) at 4, precipitated with 10% trichloroacetic acid (30 min at 4) and the insoluble material extracted ×2 with ETOH:ET2 O (3:1 v/v). The precipitate was solubilized in N NaOH and aliquots withdrawn for protein determinations using a dye-binding assay (Bio Rad Labs., Richmond, Calif.) and liquid scintillation spectrometry.
The various cell lines employed in these tests were the murine macrophage-like cell lines J774, P388D1, RAW and PU5. The various […] used in these tests were platelet-derived growth factor (PDGF), epidermal growth factor (EGF), fibroblast growth factor (FGF), and nerve growth factor (NGF). For background information on these known polypeptide growth factors, see, for example, the recent review article by Kris is et al., Biotechnology, February 1985, pp. 135-140; and the comprehensive review in Hormonal Proteins and Peptides, Ed. by Choh Hao Li, Vol. 12, "Growth Factors," Academic Press, 1984. EGF, NGF and FGF are commercially available from Biomedical Technologies, Cambridge, Mass. In a representative test, 24 hours following exposure of the growth-arrested cells to optimal concentrations of the peptide (i.e., 10^-8 M), cell numbers increased approximately two-fold from a control value of […] cells/culture well. […] The results are set forth in FIG. 2 and in Table I, below. In FIG. 2, the baseline tritiated thymidine (^3 [H]-TdR) incorporation in quiescent J774 cells was 5000 cpm±420 s.e.m. (standard error of the mean) per well. The results are expressed as the mean of triplicate determinations.

[2] = test system: macrophage-like cells; test: Mitogenic activity for macrophage-like cells; format: cell-based
Method: as §1

[3] = test system: PU5 macrophage-like cell line; test: 3[H]-TdR incorporation in growth-arrested PU5 cells; format: cell-based, murine; settings: test (2), PU5, 10^-6 M (optimal concentration), mean ± s.e.m.
Method: as §1
(§3) ^3 [H]-TdR incorporation. Various cell lines were plated in Dulbeccos's Modified Eagle Medium (DMEM) containing 10% fetal calf serum (FCS) in […] humidified atmosphere at 37° C. at an initial density of 5×10^5 per well in 24 well disposable plastic plates (Falcon, Oxnard, Calif.). Arrest of DNA synthesis (i.e., G0 /G1) was achieved by incubating the cells for 48 hours in serum-free DMEM containing 0.1% bovine serum albumin (BSA). The cells were then exposed to the peptide or to various […], or to FCS for 48 hours. Enhanced thymidine incorporation was assessed following a 2 hour pulse of N-methyl^3 [H]-TdR (1 μCi/ml). […]
(§4) The various cell lines employed in these tests were the murine macrophage-like cell lines J774, P388D1, RAW and PU5. […] The results are expressed as the mean of triplicate determinations.

[4] = test system: P388D1 macrophage-like cell line; test: 3[H]-TdR incorporation in growth-arrested P388D1 cells; format: cell-based, murine; settings: test (2), P388D1, 10^-7 M (optimal concentration), mean ± s.e.m.
Method: as §1, §3, §4

[5] = test system: RAW macrophage-like cell line; test: 3[H]-TdR incorporation in growth-arrested RAW cells; format: cell-based, murine; settings: test (2), 10^-8 M (optimal concentration), mean ± s.e.m.
Method: as §1, §3, §4

[6] = test system: murine macrophage-like cell lines J774, P388D1, RAW and PU5; test: Cell number (proliferation) of growth-arrested macrophage-like cells; format: cell-based; settings: 24 hours after exposure of growth-arrested cells to 10^-8 M (optimal concentration)
Method: as §2
as §4, with “PU5. The various […] used in these tests were platelet-derived growth factor (PDGF), epidermal growth factor (EGF), fibroblast growth factor (FGF), and nerve growth factor (NGF).” for “PU5.”

[7] = test (1), J774, >500 ng per well (highest concentration tested), mean ± s.e.m.

epidermal growth factor [EGF]
3[H]-TdR Incorporation/mg Protein (% Increase) [1, 7]: 5.2 ± 0.2 % Increase

H-NKNFTENDLL-OH [Peptide IV, H-Asn-Lys-Asn-Phe-Thr-Glu-Asn-Asp-Leu-Leu-OH]
mitogenic activity for macrophage-like cells [2]: inactive

platelet-derived growth factor [PDGF]
3[H]-TdR Incorporation/mg Protein (% Increase) [1, 7]: 9.4 ± 0.3 % Increase

nerve growth factor [NGF]
3[H]-TdR Incorporation/mg Protein (% Increase) [1, 7]: 0 ± 0.5 % Increase

H-TENDLL-OH [Peptide III, H-Thr-Glu-Asn-Asp-Leu-Leu-OH]
mitogenic activity for macrophage-like cells [2]: inactive

H-YPPWNKNFTENDLL-OH [Peptide I, H-Tyr-Pro-Pro-Trp-Asn-Lys-Asn-Phe-Thr-Glu-Asn-Asp-Leu-Leu-OH]
3[H]-TdR Incorporation/mg Protein (% Increase) [3]: 112± 4.4 % Increase
3[H]-TdR Incorporation/mg Protein (% Increase) [4]: 226± 22 % Increase
3[H]-TdR Incorporation/mg Protein (% Increase) [5]: 276± 18 % Increase
increase of cell numbers over control [6]: approximately two-fold
3[H]-TdR Incorporation/mg Protein (% Increase) ([1]; test (1), J774, 10^-8 M (optimal concentration), 48 h exposure, mean ± s.e.m. of triplicate cultures): 140± 8.5 % Increase
3[H]-TdR Incorporation/mg Protein (% Increase) ([1]; test (2), J774, 10^-8 M (optimal concentration), mean ± s.e.m.): 190± 12 % Increase

fibroblast growth factor [FGF]
3[H]-TdR Incorporation/mg Protein (% Increase) [1, 7]: 0 ± 0.4 % Increase
